Source: patent US10093674B2, “Supramolecular nanofibers and hydrogels based on nucleic acids functionalized with nucleobases” (Brandeis University, priority 2011, dated 2018)

Key:
HeLa cells [1] = settings: 500 μM, 72 hours; for cell viability: MTT assay
From the text: To verify the biocompatibility of the hydrogelators, we added hydrogelator 1 or precursor 2 into the culture of HeLa cells and measured the proliferation of the cells.

mammalian cells = settings: 500 μM, 72 hours; for cell viability: mammalian cells, MTT assay
Method: To verify the biocompatibility of the hydrogelators, hydrogelators 1′ and 2′ were added into a culture of mammalian cells, and the proliferation of the cells was measured.

[2] = tested on: alkaline phosphatase (ALP); settings: 12 h after the addition of alkaline phosphatase, 31P NMR
From the text: Following the procedures reported by Nieddu for making nucleobase acetic acids, we first synthesized bis(tert-butyloxycarbonyl) (bis-Boc) protected adenine, (N^6-bis-Boc-adenine-9-yl)-acetic acid (4). After being activated by N-hydroxysuccinimide (NHS), 4 reacts with L-Phe to afford 5, which undergoes the same NHS activation and phenylalanine coupling to give the key intermediate 6.

HeLa cells [3] = settings: 500 μM in medium, 20 h
Method: HeLa cells were re-suspended in 10 cm tissue culture dish after washing cells once with PBS. 0.8 mL 0.25% trypsin containing 0.1% EDTA was then added, and the cells were re-suspended with 1.6 mL complete medium. 5000 cells (in 100 μL medium) were plated into each vial on a 96 well plate to create a confluent monolayer. After adherent for 24 h, a wound was created by scraping the cell monolayer with a p200 pipet tip. The cells were washed once with 100 μL of complete medium to remove flowing cells and replace with 100 μL of complete medium. 0 h image was acquired as a reference point. […] 0 h and 20 h images were acquired at the match photographed region.

HeLa cells [4] = settings: 500 μM 1T′ and 0.1 μM nucleic acid complex, 24 h
Method: HeLa cells were seeded in 2 well chamber slide at a density of 10,000 cell/well. […] After incubation at 37° C. for 24 h, we removed the culture medium, washed the cells by 1 mL PBS for 3 times, then resin the cells in 1 mL PBS. Fluorescence images were taken by using confocal fluorescence microscope. FIG. 34.

Substance	cell viability (mammalian cells)	cell viability (HeLa cells [1])	further results
Guanine-Phe-Phe-Tyr-phosphate [Compound 2G]			cell viability (in words) (HeLa cells [1]): decreases slightly
Thymine-Phe-Phe-glucosamine [2T′]	90%		
Cytosine-Phe-Phe-Tyr-phosphate [Compound 2C]		100%	
Guanine-Phe-Phe-glucosamine [2G′]	90%		
Thymine-Phe-Phe-Tyr-phosphate [Compound 2T]		100%	
Cytosine-Phe-Glucosamine [1C′]			cell viability (in words) (mammalian cells): decreased slightly
Thymine-Phe-Phe [Compound 1T]		100%	
Adenine-Phe-Phe-glucosamine [2A′]	90%		
Cytosine-Phe-Phe [Compound 1C]		100%	
Adenine-Phe-Phe-Tyr-phosphate [Compound 2A]		100%	transformation of precursor into hydrogelator [2]: completely transforms
Guanine-Phe-Phe [Compound 1G]			cell viability (in words) (HeLa cells [1]): decreases slightly
Guanine-Phe-glucosamine [1G′]	90%		
Cytosine-Phe-Phe-Glucosamine [2C′]	90%		
Adenine-Phe-Phe [Compound 1A]		100%	
Thymine-Phe-glucosamine [1T′]	90%		effect on the migration of cells (HeLa cells [3]): little inhibitory effect; delivery of FITC-labeled nucleic acid (HeLa cells [4]): nuclear localization of DNA
Adenine-Phe-glucosamine [1A′]			cell viability (in words) (mammalian cells): decreased slightly
